Assay results reported in US12617788B2, “Bridged bicyclic compounds as BTK inhibitors” (Beijing InnoCare Pharma Tech Co., Ltd., priority 2020, dated 2026).

How the values were obtained:
[1] = molecular target: T1, human-derived recombinant BTK protein (Homo sapiens, UniProt Q06187); assay: BTK activity inhibition assay (HTRF kinase assay); type: biochemical; settings: 40 μM ATP
T1 construct: purchased Carna Biosciences 08-180
Method: In vitro kinase assay was used to evaluate the effects of compounds of the present invention on BTK activity (Table 1).
By using the homogeneous time-resolved fluorescence (HTRF) kinase detection kit (Cisbio, catalog number 62TK0PEC), the enzymatic activity of BTK is determined by detecting the phosphorylation level of the substrate in the kinase reaction. […]
(§1) Add 4 μL test compound solution and 2 μL kinase reaction solution to a 384-well detection plate (Corning, catalog number 3674), mix well and incubate at room temperature for 15 minutes; add 4 μL substrate reaction solution and incubate for 50 minutes; add 10 μL detection buffer, mix well and stand for 60 minutes; detect signal at 620 nm and 665 nm using an Envision plate reader (Perkin Elmer). The signal value (absorbance at 665 nm/absorbance at 620 nm) is positively correlated with the degree of phosphorylation of the substrate, thereby detecting the kinase activity of BTK. […] The inhibition curve is plotted and the corresponding IC50 value of the test compound is calculated using XLfit software (ID Business Solutions Ltd., UK).

[2] = molecular target: T2, human recombinant BTK C481S protein (Homo sapiens, UniProt Q06187, C481S); assay: BTK C481S activity inhibition assay (HTRF kinase assay); type: biochemical; settings: 35 μM ATP
T2 construct: made in house
Method: In vitro kinase assay was used to evaluate the effects of compounds of the present invention on BTK C481S activity (Table 1).
By using the homogeneous time-resolved fluorescence (HTRF) kinase detection kit (Cisbio, catalog number 62TK0PEC), the enzymatic activity of BTK C481S is determined by detecting the phosphorylation level of the substrate in the kinase reaction. […]
as §1, with “BTK C481S.” for “BTK.”

[3] = Brain penetration activity test in rats; type: in vivo; settings: for Brain penetration (result in words): male Sprague Dawley rats, oral 5 mg/kg; for Kp at 8 h: male, Sprague Dawley, rat, brain tissue homogenate / plasma, po, 5 mg/kg, AUCbrain/AUCplasma, samples at 1, 2, 4 and 8 hours
Method: “CSF/plasma ratio (Kp, CSF)” refers to the ratio of a compound concentration in cerebrospinal fluid (CSF) vs. in plasma. The ability of a compound to cross blood-brain barrier (BBB) is assessed by measuring its concentrations in CSF and plasma in rodents, and determining the ratio (Kp, CSF).
Compound A or B in a 0.5 mg/mL solution containing 5% N,N-dimethylacetamide+10% solutol+85% saline was orally administered to twelve male Sprague Dawley rats at a dose of 5 mg/kg. Samples of plasma, brain tissue homogenate (for measuring Kp, brain) and cerebrospinal fluid (for measuring Kp, CSF) were collected at 1, 2, 4 and 8 hours after administration (from three animals at each time point).
The concentrations of the compound in plasma, brain tissue homogenate, and CSF were quantified by LC-MS/MS using an API-4500 mass spectrometer, respectively. The limit of quantification (LOQ) of analysis was 1 ng/mL. The pharmacokinetic (PK) parameters were calculated by the non-compartmental method using WinNonlin. Each of Kp, brain and Kp, CSF was calculated as AUCbrain/AUCplasma and AUCCSF/AUCplasma, respectively.

T2 sequence (Q06187 whole entry C481S): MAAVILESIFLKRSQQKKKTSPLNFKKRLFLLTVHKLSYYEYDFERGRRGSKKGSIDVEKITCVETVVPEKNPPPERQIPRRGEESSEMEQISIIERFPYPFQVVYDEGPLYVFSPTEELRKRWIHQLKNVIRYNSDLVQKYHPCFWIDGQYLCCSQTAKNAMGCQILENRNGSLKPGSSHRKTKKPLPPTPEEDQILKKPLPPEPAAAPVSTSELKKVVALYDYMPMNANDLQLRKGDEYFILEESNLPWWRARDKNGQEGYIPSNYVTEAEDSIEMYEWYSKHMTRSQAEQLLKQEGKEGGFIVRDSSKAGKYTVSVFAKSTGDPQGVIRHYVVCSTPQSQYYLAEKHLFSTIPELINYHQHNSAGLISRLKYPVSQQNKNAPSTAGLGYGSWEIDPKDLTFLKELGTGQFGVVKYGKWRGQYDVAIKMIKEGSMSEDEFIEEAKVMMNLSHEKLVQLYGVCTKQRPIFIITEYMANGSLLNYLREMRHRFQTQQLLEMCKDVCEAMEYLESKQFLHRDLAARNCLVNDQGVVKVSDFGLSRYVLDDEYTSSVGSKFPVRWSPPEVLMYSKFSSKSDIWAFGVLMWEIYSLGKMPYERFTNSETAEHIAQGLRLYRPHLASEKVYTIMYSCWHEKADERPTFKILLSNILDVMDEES
T1 sequence (Q06187 whole entry): as the sequence (Q06187 whole entry C481S) above, with S481C counted along it

Row | IC50 [1] | IC50 [2] | Brain penetration (result in words) [3] | Kp at 8 h [3] | SMILES
1 | 0.7 nM | 1.3 nM | non-brain penetrants | 0.0355 | COc1ccc(F)cc1C(=O)NCc1ccc(-c2nc(C34CCC(C(=O)O)(CC3)CC4)n3ncnc(N)c23)cc1 [Compound A, 4-(4-amino-5-(4-((5-fluoro-2-methoxybenzamido)methyl)phenyl)imidazo[5,1-f][1,2,4]triazin-7-yl)bicyclo[2.2.2]octane-1-carboxylic acid]
2 | 1 nM | 1.2 nM | non-brain penetrants | 0.0315 | COc1ccc(F)cc1C(=O)NCc1ccc(-c2nc(C34CCC(C(=O)N5CCOCC5)(CC3)CC4)n3ncnc(N)c23)cc1 [Compound B, N-(4-(4-amino-7-(4-(morpholine-4-carbonyl)bicyclo[2.2.2]octan-1-yl)imidazo[5,1-f][1,2,4]triazin-5-yl)benzyl)-5-fluoro-2-methoxybenzamide]
